# Tested on: not listed separately
# Assay: MTT viability, MEWO
# Format: cell-based, human
# Details: human, MEWO malignant melanoma cells, 1000 µM (IC50 exceeded 1000 µM), read-out: viability ± standard deviation at 1000 µM
# Summary of the method: (§1)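 Attached cells (1 × 10^4 per 100 µL) received test compounds for 24 h, then MTT for a further 4 h. Dissolved formazan was quantified by absorbance at 570 nm. Values are treated/control OD ratios, means ± SD.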
row,Compound,"viability at 24 h, 1000 µM"
1,CC(=O)CCC=C(C)C(C)CCC=C(C)C (stereo not drawn) [Compound 6],102%
2,CC(=O)CCC=CC(C)CCC=C(C)C (stereo not drawn) [Compound 7],99%
3,CC(=O)CCC=C(C)C(C)CCCC(C)C (stereo not drawn) [Compound 8],94%
4,CC(=O)CCC=C(C)CC(C)CCC=C(C)C (stereo not drawn) [Compound 9],83%
5,CC(=O)CCC=C(C)CCC(C)CCC=C(C)C (stereo not drawn) [Compound 10],93%
6,CC(=O)CCC=C(C)C(C)CC(C)CCC=C(C)C (stereo not drawn) [Compound 11],112%

# Tested on: Escherichia coli ATCC 25922
# Assay: not given
# Design: method as in doi:10.1002/ffj.3238
# Details: data presented by the authors before; cited from earlier work
row,Compound,Minimum Inhibitory Concentrations MIC
1,CC(=O)CCC=C(C)C(C)CCC=C(C)C (stereo not drawn) [Compound 6],14 µg/mL
2,CC(=O)CCC=CC(C)CCC=C(C)C (stereo not drawn) [Compound 7],16 µg/mL
3,CC(=O)CCC=C(C)C(C)CCCC(C)C (stereo not drawn) [Compound 8],18 µg/mL
4,CC(=O)CCC=C(C)CC(C)CCC=C(C)C (stereo not drawn) [Compound 9],28 µg/mL
5,CC(=O)CCC=C(C)CCC(C)CCC=C(C)C (stereo not drawn) [Compound 10],32 µg/mL
6,CC(=O)CCC=C(C)C(C)CC(C)CCC=C(C)C (stereo not drawn) [Compound 11],28 µg/mL

# Tested on: not listed separately
# Assay: MTT viability, HFIG
# Format: cell-based, human
# Details: human, HFIG (HFIB-G) gingival fibroblasts, 1000 µM (IC50 exceeded 1000 µM), read-out: viability ± standard deviation at 1000 µM
# Summary of the method: as §1
row,Compound,"viability at 24 h, 1000 µM"
1,CC(=O)CCC=C(C)C(C)CCC=C(C)C (stereo not drawn) [Compound 6],83%
2,CC(=O)CCC=CC(C)CCC=C(C)C (stereo not drawn) [Compound 7],92%
3,CC(=O)CCC=C(C)C(C)CCCC(C)C (stereo not drawn) [Compound 8],81%
4,CC(=O)CCC=C(C)CC(C)CCC=C(C)C (stereo not drawn) [Compound 9],85%
5,CC(=O)CCC=C(C)CCC(C)CCC=C(C)C (stereo not drawn) [Compound 10],98%
6,CC(=O)CCC=C(C)C(C)CC(C)CCC=C(C)C (stereo not drawn) [Compound 11],102%

# Tested on: not listed separately
# Assay: MTT viability, HT29
# Format: cell-based, human
# Details: human, HT29 colorectal adenocarcinoma cells, 1000 µM (IC50 exceeded 1000 µM), read-out: viability ± standard deviation at 1000 µM
# Summary of the method: as §1
row,Compound,"viability at 24 h, 1000 µM"
1,CC(=O)CCC=C(C)C(C)CCC=C(C)C (stereo not drawn) [Compound 6],102%
2,CC(=O)CCC=CC(C)CCC=C(C)C (stereo not drawn) [Compound 7],98%
3,CC(=O)CCC=C(C)C(C)CCCC(C)C (stereo not drawn) [Compound 8],111%
4,CC(=O)CCC=C(C)CC(C)CCC=C(C)C (stereo not drawn) [Compound 9],107%
5,CC(=O)CCC=C(C)CCC(C)CCC=C(C)C (stereo not drawn) [Compound 10],103%
6,CC(=O)CCC=C(C)C(C)CC(C)CCC=C(C)C (stereo not drawn) [Compound 11],92%

# Tested on: Enterococcus faecalis ATCC 51299
# Assay: not given
# Design: method as in doi:10.1002/ffj.3238
# Details: data presented by the authors before; cited from earlier work
row,Compound,Minimum Inhibitory Concentrations MIC
1,CC(=O)CCC=C(C)C(C)CCC=C(C)C (stereo not drawn) [Compound 6],18 µg/mL
2,CC(=O)CCC=CC(C)CCC=C(C)C (stereo not drawn) [Compound 7],16 µg/mL
3,CC(=O)CCC=C(C)C(C)CCCC(C)C (stereo not drawn) [Compound 8],26 µg/mL
4,CC(=O)CCC=C(C)CC(C)CCC=C(C)C (stereo not drawn) [Compound 9],18 µg/mL
5,CC(=O)CCC=C(C)CCC(C)CCC=C(C)C (stereo not drawn) [Compound 10],26 µg/mL
6,CC(=O)CCC=C(C)C(C)CC(C)CCC=C(C)C (stereo not drawn) [Compound 11],22 µg/mL

# Tested on: Klebsiella pneumoniae ATCC 700603
# Assay: not given
# Design: method as in doi:10.1002/ffj.3238
# Details: data presented by the authors before; cited from earlier work
row,Compound,Minimum Inhibitory Concentrations MIC
1,CC(=O)CCC=C(C)C(C)CCC=C(C)C (stereo not drawn) [Compound 6],14 µg/mL
2,CC(=O)CCC=CC(C)CCC=C(C)C (stereo not drawn) [Compound 7],16 µg/mL
3,CC(=O)CCC=C(C)C(C)CCCC(C)C (stereo not drawn) [Compound 8],18 µg/mL
4,CC(=O)CCC=C(C)CC(C)CCC=C(C)C (stereo not drawn) [Compound 9],18 µg/mL
5,CC(=O)CCC=C(C)CCC(C)CCC=C(C)C (stereo not drawn) [Compound 10],18 µg/mL
6,CC(=O)CCC=C(C)C(C)CC(C)CCC=C(C)C (stereo not drawn) [Compound 11],28 µg/mL

# Tested on: not listed separately
# Assay: MTT viability, HaCaT
# Format: cell-based, human
# Details: human, HaCaT keratinocytes, 1000 µM (IC50 exceeded 1000 µM), read-out: viability ± standard deviation at 1000 µM
# Summary of the method: as §1
row,Compound,"viability at 24 h, 1000 µM"
1,CC(=O)CCC=C(C)C(C)CCC=C(C)C (stereo not drawn) [Compound 6],118%
2,CC(=O)CCC=CC(C)CCC=C(C)C (stereo not drawn) [Compound 7],101%
3,CC(=O)CCC=C(C)C(C)CCCC(C)C (stereo not drawn) [Compound 8],90%
4,CC(=O)CCC=C(C)CC(C)CCC=C(C)C (stereo not drawn) [Compound 9],89%
5,CC(=O)CCC=C(C)CCC(C)CCC=C(C)C (stereo not drawn) [Compound 10],112%
6,CC(=O)CCC=C(C)C(C)CC(C)CCC=C(C)C (stereo not drawn) [Compound 11],100%

# Tested on: Acinetobacter baumannii ATCC 19606
# Assay: not given
# Design: method as in doi:10.1002/ffj.3238
# Details: data presented by the authors before; cited from earlier work
row,Compound,Minimum Inhibitory Concentrations MIC
1,CC(=O)CCC=C(C)C(C)CCC=C(C)C (stereo not drawn) [Compound 6],12 µg/mL
2,CC(=O)CCC=CC(C)CCC=C(C)C (stereo not drawn) [Compound 7],14 µg/mL
3,CC(=O)CCC=C(C)C(C)CCCC(C)C (stereo not drawn) [Compound 8],22 µg/mL
4,CC(=O)CCC=C(C)CC(C)CCC=C(C)C (stereo not drawn) [Compound 9],16 µg/mL
5,CC(=O)CCC=C(C)CCC(C)CCC=C(C)C (stereo not drawn) [Compound 10],16 µg/mL
6,CC(=O)CCC=C(C)C(C)CC(C)CCC=C(C)C (stereo not drawn) [Compound 11],14 µg/mL

# Tested on: not listed separately
# Assay: MTT viability, HL-60
# Format: cell-based, human
# Details: human, HL-60 promyelocytic leukaemia cells, HL-60, MTT, 1000 µM (IC50 exceeded 1000 µM), read-out: viability ± standard deviation at 1000 µM
# Summary of the method: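 Viability is given as the optical density ratio of treated to control wells after 24 h compound treatment at 37 °C. Formazan from a 4 h MTT incubation is solubilised with SDS/DMF and measured at 570 nm.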
row,Compound,"viability at 24 h, 1000 µM"
1,CC(=O)CCC=C(C)C(C)CCC=C(C)C (stereo not drawn) [Compound 6],67%
2,CC(=O)CCC=CC(C)CCC=C(C)C (stereo not drawn) [Compound 7],67%
3,CC(=O)CCC=C(C)C(C)CCCC(C)C (stereo not drawn) [Compound 8],72%
4,CC(=O)CCC=C(C)CC(C)CCC=C(C)C (stereo not drawn) [Compound 9],69%
5,CC(=O)CCC=C(C)CCC(C)CCC=C(C)C (stereo not drawn) [Compound 10],62%
6,CC(=O)CCC=C(C)C(C)CC(C)CCC=C(C)C (stereo not drawn) [Compound 11],59%

# Tested on: Enterococcus faecium ATCC 35667
# Assay: not given
# Design: method as in doi:10.1002/ffj.3238
# Details: data presented by the authors before; cited from earlier work
row,Compound,Minimum Inhibitory Concentrations MIC
1,CC(=O)CCC=C(C)C(C)CCC=C(C)C (stereo not drawn) [Compound 6],16 µg/mL
2,CC(=O)CCC=CC(C)CCC=C(C)C (stereo not drawn) [Compound 7],18 µg/mL
3,CC(=O)CCC=C(C)C(C)CCCC(C)C (stereo not drawn) [Compound 8],28 µg/mL
4,CC(=O)CCC=C(C)CC(C)CCC=C(C)C (stereo not drawn) [Compound 9],14 µg/mL
5,CC(=O)CCC=C(C)CCC(C)CCC=C(C)C (stereo not drawn) [Compound 10],18 µg/mL
6,CC(=O)CCC=C(C)C(C)CC(C)CCC=C(C)C (stereo not drawn) [Compound 11],18 µg/mL

# Tested on: not listed separately
# Assay: MTT viability, IEC6
# Format: cell-based
# Details: rat, IEC-6 small intestine epithelial cells, 1000 µM (IC50 exceeded 1000 µM), read-out: viability ± standard deviation at 1000 µM
# Summary of the method: as §1
row,Compound,"viability at 24 h, 1000 µM"
1,CC(=O)CCC=C(C)C(C)CCC=C(C)C (stereo not drawn) [Compound 6],95%
2,CC(=O)CCC=CC(C)CCC=C(C)C (stereo not drawn) [Compound 7],82%
3,CC(=O)CCC=C(C)C(C)CCCC(C)C (stereo not drawn) [Compound 8],97%
4,CC(=O)CCC=C(C)CC(C)CCC=C(C)C (stereo not drawn) [Compound 9],76%
5,CC(=O)CCC=C(C)CCC(C)CCC=C(C)C (stereo not drawn) [Compound 10],78%
6,CC(=O)CCC=C(C)C(C)CC(C)CCC=C(C)C (stereo not drawn) [Compound 11],81%

# Tested on: Staphylococcus aureus ATCC 43300
# Assay: not given
# Design: method as in doi:10.1002/ffj.3238
# Details: data presented by the authors before; cited from earlier work
row,Compound,Minimum Inhibitory Concentrations MIC
1,CC(=O)CCC=C(C)C(C)CCC=C(C)C (stereo not drawn) [Compound 6],26 µg/mL
2,CC(=O)CCC=CC(C)CCC=C(C)C (stereo not drawn) [Compound 7],26 µg/mL
3,CC(=O)CCC=C(C)C(C)CCCC(C)C (stereo not drawn) [Compound 8],38 µg/mL
4,CC(=O)CCC=C(C)CC(C)CCC=C(C)C (stereo not drawn) [Compound 9],28 µg/mL
5,CC(=O)CCC=C(C)CCC(C)CCC=C(C)C (stereo not drawn) [Compound 10],46 µg/mL
6,CC(=O)CCC=C(C)C(C)CC(C)CCC=C(C)C (stereo not drawn) [Compound 11],26 µg/mL

# From PMC6272674, “Selected Compounds Structurally Related to Acyclic Sesquiterpenoids and Their Antibacterial and Cytotoxic Activity” (Molecules, 2015)
